Measured values from patent publication US20170071204A1, “ACTIVE COMPOUND COMBINATIONS HAVING IN[…]” (priority 2014, published 2017).

Assays:
Type in all cases: in vivo
[1] = tested on: two spotted spidermite (Tetranychus urticae); experiment: Tetranychus urticae spray test OP-resistant (French bean leaf disks); settings: for Efficacy in % after 2 d: mortality after 2 d
Source text: (§1) The expected activity for a given combination of two active compounds can be calculated according to S. R. Colby, Weeds 15 (1967), 20-22 as follows:
(§2) • X is the kill rate, expressed in % of the untreated control, when active compound A is applied at an application rate of m g/ha or at a concentration of m ppm, • Y is the kill rate, expressed in % of the untreated control, when active compound B is applied at an application rate of n g/ha or at a concentration of n ppm and • E is the kill rate, expressed in % of the untreated control, when active compounds A and B is applied at application rates of m and n g/ha or at a concentration of m and n ppm, then
(§3) If the observed insecticidal efficacy of the combination is higher than the one calculated as “E”, then the combination of the two compounds is more than additive, i.e., there is a synergistic effect.
(§4) Solvent: 78.0 parts by weight acetone • 1.5 parts by weight dimethylformamide Emulsifier: alkylarylpolyglycol ether
(§5) To produce a suitable preparation of active compound, 1 part by weight of active compound is mixed with the stated amount of solvents and is diluted with water, containing an emulsifier concentration of 1000 ppm, to the desired concentration. To produce a suitable preparation of a spore suspension the spores are diluted with emulsifier containing water to the desired concentration. Further test concentrations are prepared by dilution with emulsifier containing water.
French bean (Phaseolus vulgaris) leaf disks which are heavily infested with all stages of the two spotted spidermite (Tetranychus urticae), are sprayed with a preparation of the active ingredient of the desired concentration.
After the specified period of time, mortality in % is determined. 100% means all spider mites have been killed and 0% means none of the spider mites have been killed. The mortality values determined thus are recalculated using the Colby-formula (see sheet 1).

[2] = tested on: mustard beetle larvae (Phaedon cochleariae); experiment: Phaedon cochleariae spray test (Chinese cabbage leaf disks); settings: mortality after 6 d
Source text: as §1, §2, §3
Solvent: 78.0 parts by weight of acetone • • 1.5 parts by weight of dimethylformamide Emulsifier: alkylarylpolyglycol ether
as §5
Chinese cabbage (Brassica pekinensis) leaf disks are sprayed with a preparation of the active ingredient of the desired concentration. Once dry, the leaf disks are infested with mustard beetle larvae (Phaedon cochleariae).
After the specified period of time, mortality in % is determined. 100% means all beetle larvae have been killed and 0% means none of the beetle larvae have been killed. The mortality values determined thus are recalculated using the Colby-formula (see sheet 1).

[3] = tested on: green peach aphid (Myzus persicae); experiment: Myzus persicae spray test (Chinese cabbage leaf disks); settings: for Efficacy in % after 1 d: mortality after 1 d; for Efficacy in % after 6 d: mortality after 6 d
Source text: as §1, §2, §3, §4, §5
Chinese cabbage (Brassica pekinensis) leaf disks infected with all instars of the green peach aphid (Myzus persicae), are sprayed with a preparation of the active ingredient of the desired concentration.
After the specified period of time, mortality in % is determined. 100% means all aphids have been killed; 0% means none of the aphids have been killed. The mortality values determined thus are recalculated using the Colby-formula (see sheet 1).

## CCOP(=S)(OCC)Oc1nc(Cl)c(Cl)cc1Cl [Chlorpyrifos]
[1]; 4 g ai/ha, mortality after 6 d
  Efficacy in % after 6 d: 0%
[1]; 20 g ai/ha
  Efficacy in % after 2 d: 0%

## N#CCNC(=O)c1cnccc1C(F)(F)F [Flonicamid]
[1]; 4 g ai/ha
  Efficacy in % after 2 d: 0%

## O=C1C=C(N(Cc2ccc(Cl)nc2)CC(F)F)CO1 [Flupyradifurone]
[1]; 0.8 g ai/ha
  Efficacy in % after 2 d: 0%
[1]; 4 g ai/ha
  Efficacy in % after 2 d: 0%

## O=C(NC(=O)c1c(F)cccc1F)Nc1cc(Cl)c(OC(F)(F)C(F)C(F)(F)F)cc1Cl (centres unmarked) [Lufenuron]
[1]; 20 g ai/ha
  Efficacy in % after 2 d: 0%

## O=C(/N=c1\ccccn1Cc1ccc(Cl)nc1)C(F)(F)F [N-[(2E)-1-[(6-chloropyridin-3-yl)methyl]pyridin-2(1H)-ylidene]-2,2,2-trifluoroacetamide]
[2]; 100 g ai/ha
  Efficacy in % after 6 d: 0%

## O=C(NC(=O)c1c(F)cccc1F)Nc1ccc(OC(F)(F)C(F)OC(F)(F)F)c(Cl)c1 (centres unmarked) [Novaluron]
[2]; 100 g ai/ha
  Efficacy in % after 6 d: 0%

## Abamectin
[2]; 0.8 g ai/ha
  Efficacy in % after 6 d: 0%

## Lepimectin
[3]; 4 g ai/ha
  Efficacy in % after 1 d: 0%
  Efficacy in % after 6 d: 0%
[3]; 20 g ai/ha
  Efficacy in % after 1 d: 0%
  Efficacy in % after 6 d: 0%

## Milbemectin
[3]; 4 g ai/ha
  Efficacy in % after 6 d: 0%
